Assay results published in US20250057873A1, “Intestinal Tumor Suppressor, PGE2 Production Inhibitor, and IL-22BP Production Promoter” (TOKYO UNIVERSITY OF SCIENCE FOUNDATION, priority 2021, published 2025).

Experiments:
[1] = target: T1, Dectin-1 (Mus musculus, UniProt Q6QLQ4); experiment: Stimulation of Apc^Min/+ polyp-infiltrating leukocytes / CD11b+ cells with Curdlan, with or without laminarin pre-treatment, qPCR; type: cell-based; settings: polyp-infiltrating leukocytes from Apc^Min/+ mice, Curdlan 20 hours, qPCR
T1 construct: CD11b^+ cells and CD11c^+ cells were purified from colorectal polyps with autoMACS; endogenous in cells; host or cells: primary CD11b+/CD11c+ cells or all polyp-infiltrating cells from colorectal/intestinal polyps of WT (C57BL/6J, AOM-DSS) or Apc^Min/+ mice
T1 sequence (Q6QLQ4 1-244): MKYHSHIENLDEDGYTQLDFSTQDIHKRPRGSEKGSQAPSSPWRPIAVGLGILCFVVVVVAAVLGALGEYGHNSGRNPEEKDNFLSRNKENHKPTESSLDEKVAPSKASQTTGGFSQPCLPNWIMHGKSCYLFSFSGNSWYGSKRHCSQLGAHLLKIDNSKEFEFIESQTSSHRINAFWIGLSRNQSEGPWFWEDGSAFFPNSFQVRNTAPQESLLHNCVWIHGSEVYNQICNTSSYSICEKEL
Procedure: (§1) FIG. 5f: All polyp-infiltrating cells of the Apc^Min/+ mice were collected, and were stimulated with Curdlan for 20 hours, and then the expression of the genes involved in the PGE2 synthesis was measured by qPCR. A laminarin treatment was performed for 4 hours before the Curdlan treatment.
as §1, with “5g: Purified CD11b^+” for “5f: All”, “treatment. The data in (FIGS. 5a to 5g) are representative of two independent experiments and expressed as mean±SD. *p<0.05, **p<0.01, and ***p<0.001.” for “treatment.”
Infiltrating cells in mouse/human colorectal tumor/non-tumor tissues (2×10^5) or mouse/human colorectal tumor/non-tumor tissue pieces (3 mm×3 mm cut) were cultured with Dectin-1 ligands Curdlan, OXCA, or laminarin, or with PGE2 stimulation for 20 h at 37° C. under 5% CO2 in 96-well flat-bottomed plates (Falcon, Becton Dickinson) in a volume of 0.2 ml RPMI containing 10% FBS and 1% streptomycin plus penicillin. After the culture, cells or tissues were collected and mRNA expression of tumor- or anti-tumor-associated genes was measured by qPCR described in Quantitative reverse transcription PCR section described later. […]

[2] = target: T2, DECTIN-1 (Homo sapiens, UniProt Q9BXN2); experiment: Curdlan stimulation of human CRC tissues or cancer-infiltrating leukocytes, qPCR; type: cell-based; settings: Curdlan 20 hours
T2 construct: endogenous in cells; host or cells: tumour-infiltrating cells and small tumour tissue pieces from surgical specimens of human CRC patients
T2 sequence (Q9BXN2 1-247): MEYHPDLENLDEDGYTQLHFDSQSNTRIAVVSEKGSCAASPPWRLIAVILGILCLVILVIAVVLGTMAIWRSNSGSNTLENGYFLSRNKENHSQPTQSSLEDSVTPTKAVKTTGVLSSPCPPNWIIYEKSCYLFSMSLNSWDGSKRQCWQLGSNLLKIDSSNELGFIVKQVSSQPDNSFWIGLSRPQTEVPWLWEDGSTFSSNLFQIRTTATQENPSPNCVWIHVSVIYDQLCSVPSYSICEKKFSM
Procedure: (§2) FIG. 7g: CRC samples were collected, and tumor-infiltrating cells were stimulated with Curdlan for 20 hours. In the case of the laminarin treatment, the cells were first treated with laminarin for 4 hours, and thereafter, were supplied with Curdlan and cultured. Expression of PGE2 synthesizing enzymes was determined by qPCR. Data are mean±SD of 3 wells.
as §2, with “7h:” for “7g:”, “tumor-infiltrating cells and normal tissue-infiltrating” for “tumor-infiltrating”, “CD33” for “PGE2 synthesizing enzymes”
FIG. 13c: Fresh CRC specimens were collected after surgery, and small pieces of tumor tissues were stimulated with Curdlan for 20 hours. In the case of the laminarin treatment, the tissues were first treated with laminarin for 4 hours, and then Curdlan was added to the cultured tissues. The expression of the PGE2 synthase was determined by qPCR. The data are expressed as mean SD of 3 wells. *p<0.05, **p<0.01, and ****p<0.0001. […]

[3] = target: T1, Dectin-1; settings: autoimmune-prone; cited from earlier work

Curdlan
expression of Ptges3, Ptgs1 and Ptgs2 [1]: significantly induced | PGE2 synthase gene expression ([2]; CRC tissues or cancer-infiltrating leukocytes): induction | expression of CD33 ([2]; tumor or normal tissue-infiltrating cells): upregulated | disease induction in SKG mice [3]: evokes arthritis, spondyloarthritis and ileitis
